Assay [1] concerns Mycobacterium tuberculosis. The assay is described as follows: Inhibition of Mycobacterium tuberculosis PTPB expressed in mouse RAW264.7 macrophages assessed as restoration of IFNgamma-induced IL-6 production after 1 hr by ELISA. For orientation: An ELISA detects its analyte on a solid surface through an enzyme-linked reagent.
Assay [2] concerns Mycobacterium tuberculosis. The assay is described as follows: Inhibition of Mycobacterium tuberculosis PTPB expressed in mouse RAW264.7 macrophages assessed as restoration of IFNgamma-induced ERK1/2 activation after 1 hr by Western blotting analysis.

Molecules are shown by their SMILES. Active and inactive are the calls of the source. The calls are words filed in the database; no cut-off is given here.

Results on 1 compound are retold here after ChEMBL document CHEMBL2311454, “Discovery and evaluation of novel inhibitors of mycobacterium protein tyrosine phosphatase B from the 6-Hydroxy-benzofuran-5-carboxylic acid scaffold” (J Med Chem, 2013).

On to `O=C(O)c1cc2c(CCc3ccc(OC(F)(F)F)cc3)c(-c3ccccc3)oc2cc1O`, for which the inhibition result in assay [1] and in assay [2] was “inactive” each time.
